# Measurements published in the supplement of paper PMC10307832.
# Tests used:
# Assay in all cases: relative viability (nuclei count vs DMSO), 5 days (fraction); higher = more cells survive
# [1] = compound: C1=CC2=NC=CN=C2C=C1/C=C/3\C(=O)NC(=O)S3 + O=C(c1cc(Cc2n[nH]c(=O)c3ccccc23)ccc1F)N1CCN(C(=O)C2CC2)CC1 [Olaparib] (partner 8 µM)
# Procedure, shortened: (§1)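 Lung cancer cell lines, seeded in 1536-well plates, were treated the following day by pin tool with a single drug or with five library-drug doses (not always all listed) in √10 steps on top of a fixed anchor-drug dose. Cells were fixed and nuclei stained in one step after 5 days, and nuclei were counted. Relative viability is the nuclei count for treated wells divided by that for vehicle wells, reported as medians of duplicate plates.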
# BGJ398 + Pictilisib = compound: CCN1CCN(c2ccc(Nc3cc(N(C)C(=O)Nc4c(Cl)c(OC)cc(OC)c4Cl)ncn3)cc2)CC1 [BGJ398] + CS(=O)(=O)N1CCN(Cc2cc3nc(-c4cccc5[nH]ncc45)nc(N4CCOCC4)c3s2)CC1 [Pictilisib] (partner 1 µM)
# Procedure, shortened: as §1
# BGJ398 + Vorinostat = compound: CCN1CCN(c2ccc(Nc3cc(N(C)C(=O)Nc4c(Cl)c(OC)cc(OC)c4Cl)ncn3)cc2)CC1 [BGJ398] + O=C(CCCCCCC(=O)Nc1ccccc1)NO [Vorinostat] (partner 1 µM)
# Procedure, shortened: as §1
# [2] = compound: C1=CC2=NC=CN=C2C=C1/C=C/3\C(=O)NC(=O)S3 + Nc1nc2[nH]cc(CCc3ccc(C(=O)N[C@@H](CCC(=O)O)C(=O)O)cc3)c2c(=O)[nH]1 [Pemetrexed] (partner 0.2 µM)
# Procedure, shortened: as §1
Cell Line,relative viability ([1]; first compound 0.02 µM),relative viability ([1]; first compound 0.06325 µM),relative viability ([1]; first compound 0.2 µM),relative viability ([1]; first compound 0.6325 µM),relative viability ([1]; first compound 2 µM),relative viability (BGJ398 + Pictilisib; first compound 0.01 µM),relative viability (BGJ398 + Pictilisib; first compound 0.03162 µM),relative viability (BGJ398 + Pictilisib; first compound 0.1 µM),relative viability (BGJ398 + Pictilisib; first compound 0.3162 µM),relative viability (BGJ398 + Pictilisib; first compound 1 µM),relative viability (BGJ398 + Vorinostat; first compound 0.01 µM),relative viability (BGJ398 + Vorinostat; first compound 0.03162 µM),relative viability (BGJ398 + Vorinostat; first compound 0.1 µM),relative viability (BGJ398 + Vorinostat; first compound 0.3162 µM),relative viability (BGJ398 + Vorinostat; first compound 1 µM),relative viability ([2]; first compound 0.02 µM),relative viability ([2]; first compound 0.06325 µM),relative viability ([2]; first compound 0.2 µM),relative viability ([2]; first compound 0.6325 µM),relative viability ([2]; first compound 2 µM)
LXF-289,0.993,0.997,1.06,1.01,1.01,0.773,0.707,0.682,0.685,0.573,0.746,0.666,0.769,0.608,0.73,0.841,0.823,0.789,0.908,0.899
NCI-H23,0.236,0.326,0.313,0.35,0.255,0.545,0.487,0.477,0.461,0.411,0.611,0.668,0.722,0.53,0.557,0.605,0.79,0.636,0.6,0.578
NCI-H322M,0.733,0.827,0.767,0.801,0.641,0.511,0.415,0.508,0.432,0.515,1.04,0.853,0.942,0.892,0.876,0.622,0.631,0.646,0.618,0.506
NCI-H358,0.559,0.663,0.65,0.667,0.419,0.305,0.403,0.358,0.315,0.332,0.614,0.769,0.704,0.635,0.824,0.166,0.18,0.177,0.186,0.181
NCI-H441,0.539,0.708,0.559,0.481,0.345,0.416,0.496,0.558,0.54,0.487,–,0.73,0.822,0.916,0.81,0.25,0.276,0.307,0.229,0.253
NCI-H460,0.391,0.361,0.438,0.45,0.397,0.343,0.435,0.393,0.408,0.343,0.737,0.706,1.18,0.809,0.67,0.0621,0.0629,0.071,0.058,0.0661
NCI-H520,0.283,0.321,0.352,0.298,0.345,0.239,0.257,0.209,0.169,0.194,0.637,0.563,0.503,0.269,0.332,0.684,0.726,0.71,0.783,0.711
NCI-H596,0.712,0.719,0.677,0.726,0.729,0.367,0.416,0.355,0.389,0.321,0.612,0.619,0.674,0.508,0.528,0.498,0.541,0.543,0.533,0.483
NCI-H647,0.438,0.532,0.537,0.51,0.496,0.406,0.511,0.38,0.401,0.29,0.471,0.549,0.482,0.51,0.626,0.162,0.19,0.168,0.178,0.182
NCI-H650,0.422,0.397,0.466,0.444,0.267,0.87,0.943,0.867,0.858,0.868,0.414,0.427,0.543,0.464,0.411,1.03,0.996,1.02,0.864,0.659
NCI-H661,0.682,0.733,0.733,0.746,0.715,0.361,0.46,0.388,0.382,0.348,0.774,0.796,0.806,0.731,0.801,0.94,1,0.982,0.845,0.905
NCI-H838,0.731,0.872,0.795,0.71,0.636,0.436,0.393,0.417,0.338,0.277,0.664,0.697,0.695,0.633,0.629,0.247,0.272,0.25,0.238,0.197
NCI-H1355,0.656,0.766,0.77,0.699,0.726,0.396,0.477,0.5,0.496,0.271,0.576,0.626,0.695,0.607,0.49,0.944,1.07,1.1,1,0.939
NCI-H1395,0.43,0.427,0.464,0.5,0.438,0.664,0.674,0.568,0.357,0.364,0.754,0.683,0.534,0.469,0.495,0.965,0.779,0.975,0.867,0.732
NCI-H1437,0.584,0.648,0.623,0.643,0.653,0.375,0.514,0.439,0.494,0.561,0.954,0.887,0.794,0.784,0.821,0.345,0.291,0.293,0.289,0.265
NCI-H1650,0.689,0.825,0.845,0.735,0.927,0.497,0.394,0.416,0.153,0.316,0.476,0.493,0.537,0.422,0.448,0.376,0.381,0.319,0.357,0.394

Cell Line,relative viability ([1]; first compound 0.02 µM),relative viability ([1]; first compound 0.06325 µM),relative viability ([1]; first compound 0.2 µM),relative viability ([1]; first compound 0.6325 µM),relative viability ([1]; first compound 2 µM),relative viability (BGJ398 + Pictilisib; first compound 0.01 µM),relative viability (BGJ398 + Pictilisib; first compound 0.03162 µM),relative viability (BGJ398 + Pictilisib; first compound 0.1 µM),relative viability (BGJ398 + Pictilisib; first compound 0.3162 µM),relative viability (BGJ398 + Pictilisib; first compound 1 µM),relative viability (BGJ398 + Vorinostat; first compound 0.01 µM),relative viability (BGJ398 + Vorinostat; first compound 0.03162 µM),relative viability (BGJ398 + Vorinostat; first compound 0.1 µM),relative viability (BGJ398 + Vorinostat; first compound 0.3162 µM),relative viability (BGJ398 + Vorinostat; first compound 1 µM),relative viability ([2]; first compound 0.02 µM),relative viability ([2]; first compound 0.06325 µM),relative viability ([2]; first compound 0.2 µM),relative viability ([2]; first compound 0.6325 µM),relative viability ([2]; first compound 2 µM)
NCI-H1651,0.181,0.154,0.183,0.178,0.188,0.46,0.625,0.574,0.507,0.546,0.473,0.544,0.554,0.579,0.405,0.53,0.474,0.582,0.589,0.518
NCI-H1666,0.746,0.713,0.709,0.695,0.728,0.511,0.461,0.536,0.374,0.329,1.06,0.963,1.05,0.986,0.916,0.898,0.548,0.838,0.96,0.759
NCI-H1734,0.613,–,0.673,0.562,0.226,0.421,0.493,0.451,0.407,0.476,0.794,0.913,0.848,0.841,0.907,0.384,–,0.427,0.436,0.362
NCI-H1755,0.774,0.86,0.886,0.872,0.908,0.443,0.446,0.361,0.349,0.285,0.714,0.746,0.827,0.733,0.72,0.394,0.404,0.465,0.428,0.444
NCI-H1793,0.805,0.752,0.801,0.779,0.702,0.296,–,0.265,0.203,0.196,0.767,0.574,0.728,0.515,0.421,0.726,0.74,0.837,0.727,0.715
NCI-H1915,0.25,0.248,0.281,0.249,0.258,0.913,0.904,0.906,1.03,0.97,0.466,0.515,0.597,0.54,0.486,0.463,0.456,0.489,0.478,0.483
NCI-H1944,0.384,0.391,0.333,0.412,0.418,0.36,0.348,0.323,0.333,0.311,0.525,0.529,0.55,0.49,0.471,0.537,0.587,0.575,0.564,0.584
NCI-H1975,0.728,0.743,0.805,0.768,0.794,0.296,0.296,0.269,0.321,0.252,0.677,0.794,0.758,0.677,0.672,0.266,0.297,0.299,0.288,0.294
NCI-H1993,0.976,1.06,1.05,1.05,0.182,0.744,0.766,0.722,0.82,0.685,0.968,0.93,0.703,0.691,0.892,0.528,0.665,0.607,0.54,0.449
NCI-H2009,0.685,0.715,0.685,0.739,0.703,0.803,0.955,0.731,0.842,0.847,0.714,0.729,0.74,0.687,0.692,1.05,1.1,1.01,1.01,1.18
NCI-H2023,0.428,0.461,0.508,0.492,0.498,0.226,0.219,0.173,0.244,0.16,0.673,0.683,0.715,0.664,0.54,0.251,0.269,0.24,0.214,0.182
NCI-H2085,0.813,0.73,0.798,0.821,0.754,0.456,0.44,0.372,0.508,0.394,0.741,0.751,0.863,0.832,0.815,0.907,0.917,0.92,0.892,0.807
NCI-H2087,0.484,0.646,0.57,0.631,0.447,0.669,0.994,0.966,0.85,1.08,0.552,0.442,0.816,0.679,0.657,0.612,0.734,0.632,0.623,0.615
NCI-H2126,0.932,0.946,0.841,0.904,0.799,0.528,0.461,0.52,0.495,0.418,0.768,0.787,0.861,0.775,0.765,0.65,0.772,0.684,0.713,0.463
NCI-H2170,0.55,0.594,0.609,0.577,0.563,0.348,0.279,0.311,0.287,0.288,0.823,0.814,0.847,0.821,0.861,0.29,0.268,0.287,0.278,0.263
NCI-H2228,0.666,0.599,0.616,0.654,0.649,0.342,0.56,0.531,0.484,0.365,0.583,0.761,0.706,0.531,0.542,0.358,0.34,0.332,0.293,0.321
